# Source: US12338253B2, “Nitrogen-containing polycyclic fused ring compound, pharmaceutical composition thereof, preparation method therefor and use thereof” (APPLIED PHARMACEUTICAL SCIENCE, INC., priority 2019, dated 2025)
# Legend:
# TT Cell = assay: TT cell activity test (CelltiterGlo, 72 h); format: cell-based, human; settings: for IC50: Homo sapiens, TT cell line, 72 h, CTG; for inhibitory activity on TT cells compared with cabozantinib: comparison in words
# Protocol: 2.3 Data Processing % Inhibition (inhibition rate)=100*(HC−test compound well reading)/(HC−LC) • High control (HC, reading control without inhibition): 0.5% DMSO • Low control (LC, control with compound inhibition): 1 μM CEP-32496
# The IC50 values were calculated using GraphPad Prism 6 software. Y=Bottom+(Top−Bottom)/(1+10^((Log IC50−X)*HillSlope)); • X: log of cpd concentration; • Y: % inhibition; • Top and Bottom: plateaus in same units as Y; • Log IC50: same log units as X; and • HillSlope: slope factor The Cell Results are Shown in Table 5: […]
# RET G810R = RET G810R (Homo sapiens (Human), UniProt P07949, G810R); assay: HTRF kinase activity test, RET G810R; format: biochemical; settings: for IC50: HTRF KinEASE-TK; for inhibitory activity on RET G810R compared with cabozantinib and selpercatinib (LOXO-292): comparison in words
# Sequence of RET G810R (P07949 29-1114 G810R): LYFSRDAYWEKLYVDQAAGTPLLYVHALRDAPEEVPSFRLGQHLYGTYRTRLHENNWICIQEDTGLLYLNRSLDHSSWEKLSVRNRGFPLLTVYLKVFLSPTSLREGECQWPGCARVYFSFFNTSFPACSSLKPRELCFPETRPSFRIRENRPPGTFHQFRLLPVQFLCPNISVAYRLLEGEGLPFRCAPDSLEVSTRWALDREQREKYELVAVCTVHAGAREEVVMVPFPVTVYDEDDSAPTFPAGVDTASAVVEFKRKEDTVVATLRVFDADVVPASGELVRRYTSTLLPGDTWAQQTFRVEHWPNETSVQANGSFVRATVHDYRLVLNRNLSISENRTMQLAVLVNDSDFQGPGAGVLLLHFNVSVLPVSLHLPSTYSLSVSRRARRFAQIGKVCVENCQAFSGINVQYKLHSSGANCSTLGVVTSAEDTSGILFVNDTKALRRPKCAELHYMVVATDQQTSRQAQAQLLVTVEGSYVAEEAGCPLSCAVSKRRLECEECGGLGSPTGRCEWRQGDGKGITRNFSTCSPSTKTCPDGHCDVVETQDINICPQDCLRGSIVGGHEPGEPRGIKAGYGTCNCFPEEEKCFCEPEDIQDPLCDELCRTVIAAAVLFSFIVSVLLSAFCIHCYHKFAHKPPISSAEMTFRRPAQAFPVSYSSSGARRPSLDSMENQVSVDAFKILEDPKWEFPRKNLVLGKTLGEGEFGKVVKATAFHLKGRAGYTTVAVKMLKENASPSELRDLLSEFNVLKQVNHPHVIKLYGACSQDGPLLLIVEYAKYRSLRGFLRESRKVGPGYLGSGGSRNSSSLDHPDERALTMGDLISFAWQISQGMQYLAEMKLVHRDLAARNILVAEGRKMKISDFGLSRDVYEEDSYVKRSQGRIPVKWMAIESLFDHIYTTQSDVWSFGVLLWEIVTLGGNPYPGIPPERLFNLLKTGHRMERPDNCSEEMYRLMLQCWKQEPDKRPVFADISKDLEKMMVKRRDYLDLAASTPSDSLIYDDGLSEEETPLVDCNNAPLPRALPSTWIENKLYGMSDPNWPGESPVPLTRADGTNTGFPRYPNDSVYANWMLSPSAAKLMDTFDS
SMILES,IC50 (TT Cell) [µM],inhibitory activity on TT cells compared with cabozantinib (TT Cell),IC50 (RET G810R) [µM],inhibitory activity on RET G810R compared with cabozantinib and selpercatinib (LOXO-292) (RET G810R)
"COc1cc2nccc(Oc3ccc(NC(=O)C4(C(=O)Nc5ccc(F)cc5)CC4)cc3)c2cc1OC [Cabozantinib, reference compound]",0.143,–,–,–
COc1ccc(CN2C3CC2CN(c2ccc(-c4cc(Br)cn5nc6[nH]ncc6c45)cn2)C3)cn1 [Compound 2],0.0422,significantly better than that of cabozantinib,–,–
"COc1ccc(CN2C3CC2CN(c2ccc(-c4cc(OCc5ccccc5)cn5nc6[nH]ncc6c45)cn2)C3)cn1 [Compound 3, 6-(benzyloxy)-4-(6-(6-((6-methoxypyridin-3-yl)methyl)-3,6-diazabicyclo[3.3.1]heptan-3-yl)pyridin-3-yl)-1H-pyrazolo[3′,4′:3,4]pyrazolo[1,5-a]pyridine]",0.0328,significantly better than that of cabozantinib,0.0162,significantly better than that of cabozantinib and selpercatinib (LOXO-292)
"COc1ccc(CN2C3CC2CN(c2ccc(-c4cc(C#N)cn5nc6[nH]ncc6c45)cn2)C3)cn1 [Compound 5, 4-(6-(6-((6-methoxypyridin-3-yl)methyl)-3,6-diazabicyclo[3.3.1]heptan-3-yl)pyridin-3-yl)-1H-pyrazolo[3′,4′:3,4]pyrazolo[1,5-a]pyridine-6-carbonitrile]",0.0118,significantly better than that of cabozantinib,0.0384,significantly better than that of cabozantinib and selpercatinib (LOXO-292)
"COc1ccc(CN2C3CC2CN(c2ccc(-c4cc(N)cn5nc6[nH]ncc6c45)cn2)C3)cn1 [Compound 6, 4-(6-(6-((6-methoxypyridin-3-yl)methyl)-3,6-diazabicyclo[3.3.1]heptan-3-yl)pyridin-3-yl)-1H-pyrazolo[3′,4′:3,4]pyrazolo[1,5-a]pyridin-6-amine]",0.0194,significantly better than that of cabozantinib,–,–
"COc1ccc(CN2C3CC2CN(c2ccc(-c4cc(OCC(C)(C)O)cn5nc6[nH]ncc6c45)cn2)C3)cn1 [Compound 8, 1-((4-(6-(6-((6-methoxypyridin-3-yl)methyl)-3,6-diazabicyclo[3.3.1]heptan-3-yl)pyridin-3-yl)-1H-pyrazolo[3′,4′:3,4]pyrazolo[1,5-a]pyridin-6-yl)oxy)-2-methylpropan-2-ol]",0.0144,significantly better than that of cabozantinib,–,–
COc1ccc(CN2C3CC2CN(c2ccc(-c4cc(OCCO)cn5nc6[nH]ncc6c45)cn2)C3)cn1 [Compound 10],0.0123,significantly better than that of cabozantinib,0.0038,significantly better than that of cabozantinib and selpercatinib (LOXO-292)
CCCCOc1cc(-c2ccc(N3CC4CC(C3)N4Cc3ccc(OC)nc3)nc2)c2c3cn[nH]c3nn2c1 [Compound 11],0.0168,significantly better than that of cabozantinib,0.0101,significantly better than that of cabozantinib and selpercatinib (LOXO-292)
COc1ccc(CN2C3CC2CN(c2ccc(-c4cc(OCCCCF)cn5nc6[nH]ncc6c45)cn2)C3)cn1 [Compound 13],0.0107,significantly better than that of cabozantinib,0.0031,significantly better than that of cabozantinib and selpercatinib (LOXO-292)
"COc1ccc(CN2C3CC2CN(c2ccc(-c4cc(OCCCl)cn5nc6[nH]ncc6c45)cn2)C3)cn1 [Compound 14, 6-(2-chloroethoxy)-4-(6-(6-((6-methoxypyridin-3-yl)methyl)-3,6-diazabicyclo[3.3.1]heptan-3-yl)pyridin-3-yl)-1H-pyrazolo[3′,4′:3,4]pyrazolo[1,5-a]pyridine]",–,–,0.0022,significantly better than that of cabozantinib and selpercatinib (LOXO-292)
"COc1ccc(CN2C3CC2CN(c2ccc(-c4cc(OCCBr)cn5nc6[nH]ncc6c45)cn2)C3)cn1 [Compound 15, 6-(2-bromoethoxy)-4-(6-(6-((6-methoxypyridin-3-yl)methyl)-3,6-diazabicyclo[3.3.1]heptan-3-yl)pyridin-3-yl)-1H-pyrazolo[3′,4′:3,4]pyrazolo[1,5-a]pyridine]",–,–,0.0079,significantly better than that of cabozantinib and selpercatinib (LOXO-292)
COc1ccc(CN2C3CC2CN(c2ccc(-c4cc(OC[C@@H]5CNCCO5)cn5nc6[nH]ncc6c45)cn2)C3)cn1 [Compound 17],0.0113,–,–,–
"CCN(CC)C(=O)N1CCN(c2ccc(-c3cc(OCCF)cn4nc5[nH]ncc5c34)cn2)CC1 [Compound 18, N,N-diethyl-4-(5-(6-(2-fluoroethoxy)-1H-pyrazolo[3′,4′:3,4]pyrazolo[1,5-a]pyridin-4-yl)pyridin-2-yl)piperazine-1-carboxamide]",0.0782,significantly better than that of cabozantinib,0.0189,significantly better than that of cabozantinib and selpercatinib (LOXO-292)
"COc1ccc(CN2C3CC2CN(c2ccc(-c4cc(OCCOCC5CC5)cn5nc6[nH]ncc6c45)cn2)C3)cn1 [Compound 28, 6-(2-(cyclopropylmethoxy)ethoxy)-4-(6-(6-((6-methoxypyridin-3-yl)methyl)-3,6-diazabicyclo[3.3.1]heptan-3-yl)pyridin-3-yl)-1H-pyrazolo[3′,4′:3,4]pyrazolo[1,5-a]pyridine]",0.0643,significantly better than that of cabozantinib,–,–
COc1ccc(CN2C3CC2CN(c2ccc(-c4cc(OC(C)C)cn5nc6[nH]ncc6c45)cn2)C3)cn1 [Compound 29],0.0608,significantly better than that of cabozantinib,–,–
"COc1ccc(CN2C3CC2CN(c2ccc(-c4cc(OC(F)F)cn5nc6[nH]ncc6c45)cn2)C3)cn1 [Compound 33, 6-(difluoromethoxy)-4-(6-(6-((6-methoxypyridin-3-yl)methyl)-3,6-diazabicyclo[3.3.1]heptan-3-yl)pyridin-3-yl)-1H-pyrazolo[3′,4′:3,4]pyrazolo[1,5-a]pyridine]",0.35,–,–,–
COc1ccc(CN2C3CC2CN(c2ccc(-c4cc(OCCOC5CC5)cn5nc6[nH]ncc6c45)cn2)C3)cn1 [Compound 34],0.0818,significantly better than that of cabozantinib,–,–
CCOc1cc(-c2ccc(N3CC4CC(C3)N4Cc3ccc(OC)nc3)nc2)c2c3c(C)n[nH]c3nn2c1 [Compound 35],0.296,–,–,–
"COc1ccc(CN2C3CC2CN(c2ccc(-c4cc(OCC5CC5)cn5nc6[nH]ncc6c45)cn2)C3)cn1 [Compound 37, 6-(cyclopropylmethoxy)-4-(6-(6-((6-methoxypyridin-3-yl)methyl)-3,6-diazabicyclo[3.3.1]heptan-3-yl)pyridin-3-yl)-1H-pyrazolo[3′,4′:3,4]pyrazolo[1,5-a]pyridine]",0.0292,significantly better than that of cabozantinib,–,–
